Where a SMILES comes first, the peptide text is derived from it. Bridges are numbered along the chain shown (N, C = ends). [ ]: non-standard residue; d: D form. The star is where a group is joined. Val(Nα-amidino) = CC(C)[C@H](NC(=N)N)C(=O)*; Hyp = O=C(O)[C@@H]1C[C@@H](O)CN1; Cit = NC(=O)NCCC[C@H](N)C(=O)O; Pen = CC(C)(S)[C@H](N)C(=O)O; dDab = NCC[C@@H](N)C(=O)O; hSer = N[C@@H](CCO)C(=O)O; Orn = NCCC[C@H](N)C(=O)O; Dab = NCC[C@H](N)C(=O)O
How the values were obtained:
Format in all cases: cell-based
[1] = tested on: Escherichia coli ATCC 25922; conditions: ATCC 25922
How it was run: (§1)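 CLSI broth microdilution, slightly modified: cation-adjusted Mueller-Hinton II broth with about 5×10^5 CFU/mL from a 0.5 McFarland suspension, and two-fold serial peptide dilutions with Polysorbate 80 at 0.002% final. MIC (μg/mL) was the lowest concentration with no visible growth after 18-20 hours at 35° C.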

[2] = tested on: Escherichia coli MCR-1 Af 45; conditions: MCR-1 Af 45
How it was run: as §1

[3] = tested on: Klebsiella pneumoniae SSI3010; conditions: SSI3010
How it was run: as §1

[4] = tested on: human red blood cells (hRBC); conditions: red cells of human, 1 h, 200 μg/mL
How it was run: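 Percent hemolysis derived from OD540 of supernatants relative to full lysis by 2.5% Triton X-100 (PBS baseline). Washed fresh human erythrocytes (20% v/v) were exposed to 200 μg/mL peptide for 1 h at 37 °C with shaking.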

SMILES	Escherichia coli ATCC 25922 MIC [1] [µg/mL]	Escherichia coli MCR-1 Af45 MIC [2] [µg/mL]	Klebsiella pneumoniae SSI3010 MIC [3] [µg/mL]	Hemolysis at 0.2 g/L [4] [%]
CC[C@H](C)[C@H](NC(=O)[C@@H]1C[C@@H](O)CN1C(=O)[C@@H](NC(=N)N)C(C)C)C(=O)N[C@H]1CCNC(=O)CC[C@@H](C(=O)N[C@@H](Cc2ccc(O)cc2)C(=O)O)NC(=O)[C@H](CCN)NC(=O)[C@H](CCN)NC(=O)[C@H](CCCCN)NC(=O)[C@@H](CCN)NC(=O)[C@H]([C@@H](C)O)NC(=O)[C@H](CCN)NC(=O)[C@H](CCCNC(=N)N)NC(=O)[C@H](CC(N)=O)NC(=O)[C@H](CCO)NC(=O)[C@H](Cc2ccc(O)cc2)NC1=O [Example 118, Gua-Val-Hyp-Ile-Dab-Tyr-Hse-Asn-Arg-Dab-Thr-^DDab-Lys-Dab-Dab-Glu-Tyr] ({Val(Nα-amidino)}-[Hyp]I[Dab]Y[hSer]NR[Dab]T[dDab]K[Dab][Dab]EY-OH; lactam 3-14)	0.0625	0.0625	0.125	<1
CC[C@H](C)[C@H](NC(=O)[C@@H]1C[C@@H](O)CN1C(=O)[C@@H](NC(=N)N)C(C)C)C(=O)N[C@H]1CCNC(=O)CC[C@@H](C(=O)N[C@@H](Cc2ccc(O)cc2)C(=O)O)NC(=O)[C@H](CCN)NC(=O)[C@H](CCN)NC(=O)[C@H](CCCN)NC(=O)[C@@H](CCN)NC(=O)[C@H]([C@@H](C)O)NC(=O)[C@H](CCN)NC(=O)[C@H](CCCNC(=N)N)NC(=O)[C@H](CC(N)=O)NC(=O)[C@H]([C@@H](C)O)NC(=O)[C@H](Cc2ccc(O)cc2)NC1=O [Example 119, Gua-Val-Hyp-Ile-Dab-Tyr-Thr-Asn-Arg-Dab-Thr-^DDab-Orn-Dab-Dab-Glu-Tyr] ({Val(Nα-amidino)}-[Hyp]I[Dab]YTNR[Dab]T[dDab][Orn][Dab][Dab]EY-OH; lactam 3-14)	0.0625	0.0625	0.125	<1
CC[C@H](C)[C@H](NC(=O)[C@@H]1C[C@@H](O)CN1C(=O)[C@@H](NC(=N)N)C(C)C)C(=O)N[C@@H]1C(=O)N[C@@H](Cc2ccc(O)cc2)C(=O)N[C@@H](CCN)C(=O)N[C@@H](CC(N)=O)C(=O)N[C@@H](CCCNC(=N)N)C(=O)N[C@@H](CCN)C(=O)N[C@@H]([C@@H](C)O)C(=O)N[C@H](CCN)C(=O)N[C@@H](CCN)C(=O)N[C@@H]([C@@H](C)O)C(=O)N[C@@H](CCN)C(=O)N[C@H](C(=O)N[C@@H](Cc2ccc(O)cc2)C(=O)O)CSSC1(C)C [Example 120, Gua-Val-Hyp-Ile-Pen-Tyr-Dab-Asn-Arg-Dab-Thr-^DDab-Dab-Thr-Dab-Cys-Tyr] ({Val(Nα-amidino)}-[Hyp]I[Pen]Y[Dab]NR[Dab]T[dDab][Dab]T[Dab]CY-OH; disulfide 3-14)	0.125	0.0625	0.125	<1
CC[C@H](C)[C@H](NC(=O)[C@@H]1C[C@@H](O)CN1C(=O)[C@@H](NC(=N)N)C(C)C)C(=O)N[C@@H]1C(=O)N[C@@H](Cc2ccc(O)cc2)C(=O)N[C@@H](CCN)C(=O)N[C@@H](CC(N)=O)C(=O)N[C@@H](CCCNC(=N)N)C(=O)N[C@@H](CCN)C(=O)N[C@@H]([C@@H](C)O)C(=O)N[C@H](CCN)C(=O)N[C@@H](CCCN)C(=O)N[C@@H]([C@@H](C)O)C(=O)N[C@@H](CCN)C(=O)N[C@H](C(=O)N[C@@H](Cc2ccc(O)cc2)C(=O)O)CSSC1(C)C [Example 121, Gua-Val-Hyp-Ile-Pen-Tyr-Dab-Asn-Arg-Dab-Thr-^DDab-Orn-Thr-Dab-Cys-Tyr] ({Val(Nα-amidino)}-[Hyp]I[Pen]Y[Dab]NR[Dab]T[dDab][Orn]T[Dab]CY-OH; disulfide 3-14)	0.0625	0.0625	0.125	<1
CC[C@H](C)[C@H](NC(=O)[C@@H]1C[C@@H](O)CN1C(=O)[C@@H](NC(=N)N)C(C)C)C(=O)N[C@@H]1C(=O)N[C@@H](Cc2ccc(O)cc2)C(=O)N[C@@H](CCCNC(N)=O)C(=O)N[C@@H](CC(N)=O)C(=O)N[C@@H](CCCNC(=N)N)C(=O)N[C@@H](CCN)C(=O)N[C@@H]([C@@H](C)O)C(=O)N[C@H](CCN)C(=O)N[C@@H](CO)C(=O)N[C@@H](CCN)C(=O)N[C@@H](CCN)C(=O)N[C@H](C(=O)N[C@@H](Cc2ccc(O)cc2)C(=O)O)CSSC1(C)C [Example 122, Gua-Val-Hyp-Ile-Pen-Tyr-Cit-Asn-Arg-Dab-Thr-^DDab-Ser-Dab-Dab-Cys-Tyr] ({Val(Nα-amidino)}-[Hyp]I[Pen]Y[Cit]NR[Dab]T[dDab]S[Dab][Dab]CY-OH; disulfide 3-14)	0.125	0.25	0.25	<1
CC[C@H](C)[C@H](NC(=O)[C@@H]1C[C@@H](O)CN1C(=O)[C@@H](NC(=N)N)C(C)C)C(=O)N[C@@H]1C(=O)N[C@@H](Cc2ccc(O)cc2)C(=O)N[C@@H]([C@@H](C)O)C(=O)N[C@@H](CC(N)=O)C(=O)N[C@@H](CCCNC(=N)N)C(=O)N[C@@H](CCN)C(=O)N[C@@H]([C@@H](C)O)C(=O)N[C@H](CCN)C(=O)N[C@@H](CCN)C(=O)N[C@@H](CCN)C(=O)N[C@@H](CCN)C(=O)N[C@H](C(=O)N[C@@H](Cc2ccc(O)cc2)C(=O)O)CSSC1(C)C [Example 123, Gua-Val-Hyp-Ile-Pen-Tyr-Thr-Asn-Arg-Dab-Thr-^DDab-Dab-Dab-Dab-Cys-Tyr] ({Val(Nα-amidino)}-[Hyp]I[Pen]YTNR[Dab]T[dDab][Dab][Dab][Dab]CY-OH; disulfide 3-14)	0.0625	0.03125	0.0625	<1
CC[C@H](C)[C@H](NC(=O)[C@@H]1C[C@@H](O)CN1C(=O)[C@@H](NC(=N)N)C(C)C)C(=O)N[C@@H]1C(=O)N[C@@H](Cc2ccc(O)cc2)C(=O)N[C@@H]([C@@H](C)O)C(=O)N[C@@H](CC(N)=O)C(=O)N[C@@H](CCCNC(=N)N)C(=O)N[C@@H](CCN)C(=O)N[C@@H]([C@@H](C)O)C(=O)N[C@H](CCN)C(=O)N[C@@H](CCCN)C(=O)N[C@@H](CCN)C(=O)N[C@@H](CCN)C(=O)N[C@H](C(=O)N[C@@H](Cc2ccc(O)cc2)C(=O)O)CSSC1(C)C [Example 124, Gua-Val-Hyp-Ile-Pen-Tyr-Thr-Asn-Arg-Dab-Thr-^DDab-Orn-Dab-Dab-Cys-Tyr] ({Val(Nα-amidino)}-[Hyp]I[Pen]YTNR[Dab]T[dDab][Orn][Dab][Dab]CY-OH; disulfide 3-14)	0.03125	0.03125	0.125	<1
CC[C@H](C)[C@H](NC(=O)[C@@H]1C[C@@H](O)CN1C(=O)[C@@H](NC(=N)N)C(C)C)C(=O)N[C@@H]1C(=O)N[C@@H](Cc2ccc(O)cc2)C(=O)N[C@@H](CO)C(=O)N[C@@H](CC(N)=O)C(=O)N[C@@H](CCCNC(=N)N)C(=O)N[C@@H](CCN)C(=O)N[C@@H]([C@@H](C)O)C(=O)N[C@H](CCN)C(=O)N[C@@H](CCN)C(=O)N[C@@H](CCN)C(=O)N[C@@H](CCN)C(=O)N[C@H](C(=O)N[C@@H](Cc2ccc(O)cc2)C(=O)O)CSSC1(C)C [Example 125, Gua-Val-Hyp-Ile-Pen-Tyr-Ser-Asn-Arg-Dab-Thr-^DDab-Dab-Dab-Dab-Cys-Tyr] ({Val(Nα-amidino)}-[Hyp]I[Pen]YSNR[Dab]T[dDab][Dab][Dab][Dab]CY-OH; disulfide 3-14)	0.125	0.03125	0.125	<1
CC[C@H](C)[C@H](NC(=O)[C@@H]1C[C@@H](O)CN1C(=O)[C@@H](NC(=N)N)C(C)C)C(=O)N[C@@H]1C(=O)N[C@@H](Cc2ccc(O)cc2)C(=O)N[C@@H](CO)C(=O)N[C@@H](CC(N)=O)C(=O)N[C@@H](CCCNC(=N)N)C(=O)N[C@@H](CCN)C(=O)N[C@@H]([C@@H](C)O)C(=O)N[C@H](CCN)C(=O)N[C@@H](CCCN)C(=O)N[C@@H](CCN)C(=O)N[C@@H](CCN)C(=O)N[C@H](C(=O)N[C@@H](Cc2ccc(O)cc2)C(=O)O)CSSC1(C)C [Example 126, Gua-Val-Hyp-Ile-Pen-Tyr-Ser-Asn-Arg-Dab-Thr-^DDab-Orn-Dab-Dab-Cys-Tyr] ({Val(Nα-amidino)}-[Hyp]I[Pen]YSNR[Dab]T[dDab][Orn][Dab][Dab]CY-OH; disulfide 3-14)	0.125	0.03125	0.125	<1
CC[C@H](C)[C@H](NC(=O)[C@@H]1C[C@@H](O)CN1C(=O)[C@@H](NC(=N)N)C(C)C)C(=O)N[C@@H]1C(=O)N[C@@H](Cc2ccc(O)cc2)C(=O)N[C@@H]([C@@H](C)O)C(=O)N[C@@H](CC(N)=O)C(=O)N[C@@H](CCCNC(=N)N)C(=O)N[C@@H](CCN)C(=O)N[C@@H]([C@@H](C)O)C(=O)N[C@H](CCN)C(=O)N[C@@H](CCN)C(=O)N[C@@H](CCN)C(=O)N[C@@H](CO)C(=O)N[C@H](C(=O)N[C@@H](Cc2ccc(O)cc2)C(=O)O)CSSC1(C)C [Example 127, Gua-Val-Hyp-Ile-Pen-Tyr-Thr-Asn-Arg-Dab-Thr-^DDab-Dab-Dab-Ser-Cys-Tyr] ({Val(Nα-amidino)}-[Hyp]I[Pen]YTNR[Dab]T[dDab][Dab][Dab]SCY-OH; disulfide 3-14)	0.125	0.0625	0.25	<1
